Results as given in US11122801B2, “Inhibitors of enzymes that confer pesticide resistance” (APRESLABS LTD., priority 2015, dated 2021).

Key:
[1] = test system: P450 activity derived from Meligethes aeneus; experiment: P450 activity by deethylation of ethoxycoumarin (Example 7); type: biochemical; details: equal concentrations, 30 ug/incubation
Experimental: P450 activity was measured by the deethylation of ethoxycoumarin.
(30 ug/incubation) as used in Example 5.

[2] = target: T1, resistance-associated esterase, E4 (Myzus persicae, UniProt P35501); experiment: Inhibition of purified resistance-associated esterase E4, para-nitrophenyl acetate substrate; type: biochemical, M. persicae; details: 3 μL 1% synergist, 10 minutes incubation, 1 mM para-nitrophenyl acetate, 405 nm
T1 sequence (P35501 24-552): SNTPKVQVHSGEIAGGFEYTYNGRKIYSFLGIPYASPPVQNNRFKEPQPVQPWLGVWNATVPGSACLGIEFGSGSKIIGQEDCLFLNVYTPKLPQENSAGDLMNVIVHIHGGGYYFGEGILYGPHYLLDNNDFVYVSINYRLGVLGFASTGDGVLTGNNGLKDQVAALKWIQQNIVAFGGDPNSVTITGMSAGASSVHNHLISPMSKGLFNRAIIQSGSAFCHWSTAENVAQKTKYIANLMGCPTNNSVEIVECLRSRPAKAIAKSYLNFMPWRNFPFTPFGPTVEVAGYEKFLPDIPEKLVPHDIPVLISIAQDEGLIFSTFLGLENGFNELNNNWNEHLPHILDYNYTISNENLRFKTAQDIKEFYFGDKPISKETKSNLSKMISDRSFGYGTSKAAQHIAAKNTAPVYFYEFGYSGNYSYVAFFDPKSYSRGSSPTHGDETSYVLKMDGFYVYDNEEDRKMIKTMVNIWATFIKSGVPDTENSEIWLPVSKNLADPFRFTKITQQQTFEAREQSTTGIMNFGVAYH
Experimental: The assay used 1 mM para-nitrophenyl acetate as a substrate. 10 μL dilute E4 in 40 μL phosphate buffer (pH 7.0) was incubated with 3 μL 1% synergist for 10 minutes. 200 μL of 1 mM para-nitrophenyl acetate was added and the remaining activity was measured at 405 nm in a microplate spectrophotometer (Molecular Devices). Inhibition by the same concentration of PBO is shown for comparison.

[3] = test system: P450 activity derived from insecticide-resistant B-type B. tabaci; experiment: P450 activity by deethylation of ethoxycoumarin (Example 5); details: 1% (30 ug/incubation), 10 minutes incubation, 7-ethoxycoumarin
Experimental: P450 activity was measured by the deethylation of ethoxycoumarin. 50 μL of the enzyme in the presence/absence of synergists was incubated for 10 minutes after which […] of 0.5 mm 7-ethyoxycoumarin in a phosphate buffer (pH 7.8) was added/incubated for a further 5 minutes at 30° C. after which 10 μL of 9.6 mm NaDPH was added. Fluorometric units (Fu) were measured with excitation wavelengths of 370 nm and 460 nm.

[4] = test system: Houseflies (Musca domestica); experiment: Housefly topical mortality with α-cypermethrin and Syn A (Example 1); type: in vivo; details: α-cypermethrin alone, 1 μL of 0.0025 g L^−1, after 24 hrs
Experimental: Houseflies (Musca domestica) were treated with 1 μL of a diagnostic concentration (0.0025 g L^−1) of α-cypermethrin, such that about 20% of the flies had died after 24 hrs.
With the addition of 1% ‘Syn A’, (i.e. 10 ug/fly) the potassium salts of fatty acids (C14-C18) obtained as a by-product of olive oil production, the mortality increased to about 70% after 24 hours. The potassium salt synergist was applied first, and the insecticide was applied within 1 hr of the application of the synergist.
The mortality rate when Syn A was used on its own was about 10%.

CCCCOCCOCCOCc1cc2c(cc1CCC)OCO2 [PBO, piperonyl butoxide]
inhibition of P450 activity [1]: inhibition

CCCCC/C=C\C/C=C\CCCCCCCC(=O)O [linoleic acid]
inhibition of esterase E4 [2]: inhibition

CCCCCCCC/C=C\CCCCCCCC(=O)O [oleic acid]
inhibition of esterase E4 [2]: inhibition | inhibition of P450 activity [3]: inhibition

CC1(C)C(C=C(Cl)Cl)C1C(=O)OC(C#N)c1cccc(Oc2ccccc2)c1 (stereo not drawn) [α-cypermethrin]
flies died (mortality) [4]: about 20%
